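Grown in 96-well plates, cells were treated for 48 hours with each compound at five concentrations. Insufficient inhibition: endpoint recorded as highest concentration tested. At the GI50, growth is halved. TGI marks complete inhibition of growth.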
Columns and labels:
Experiment in all cases: DTP human tumour cell line panel, 48 h
786-0 renal = system: 786-0 renal
A498 renal = system: A498 renal
A549 NSCLC = system: A549 NSCLC
ACHN renal = system: ACHN renal
BT-549 breast = system: BT-549 breast
CAKI-1 renal = system: CAKI-1 renal
CCRF-CEM leukemia = system: CCRF-CEM leukemia
COLO 205 colon = system: COLO 205 colon
DU-145 prostate = system: DU-145 prostate
EKVX NSCLC = system: EKVX NSCLC
HCC-2998 colon = system: HCC-2998 colon
HCT-116 colon = system: HCT-116 colon
HCT-15 colon = system: HCT-15 colon
HL-60(TB) leukemia = system: HL-60(TB) leukemia
HOP-62 NSCLC = system: HOP-62 NSCLC
HOP-92 NSCLC = system: HOP-92 NSCLC
HS 578T breast = system: HS 578T breast
HT29 colon = system: HT29 colon
IGROV1 ovarian = system: IGROV1 ovarian
K-562 leukemia = system: K-562 leukemia
KM12 colon = system: KM12 colon
LOX IMVI melanoma = system: LOX IMVI melanoma
M14 melanoma = system: M14 melanoma
MALME-3M melanoma = system: MALME-3M melanoma
MCF7 breast = system: MCF7 breast
MDA-MB-231 breast = system: MDA-MB-231 breast
MDA-MB-435 = system: MDA-MB-435
MOLT-4 leukemia = system: MOLT-4 leukemia
NCI-H226 lung = system: NCI-H226 lung
NCI-H23 lung = system: NCI-H23 lung
NCI-H460 lung = system: NCI-H460 lung
NCI/ADR-RES ovarian = system: NCI/ADR-RES ovarian
OVCAR-3 ovarian = system: OVCAR-3 ovarian
OVCAR-4 ovarian = system: OVCAR-4 ovarian
OVCAR-5 ovarian = system: OVCAR-5 ovarian
OVCAR-8 ovarian = system: OVCAR-8 ovarian
PC-3 prostate = system: PC-3 prostate
RPMI-8226 leukemia = system: RPMI-8226 leukemia
RXF 393 renal = system: RXF 393 renal
SF-268 CNS = system: SF-268 CNS
SF-295 CNS = system: SF-295 CNS
SF-539 CNS = system: SF-539 CNS
SK-MEL-2 melanoma = system: SK-MEL-2 melanoma
SK-MEL-28 melanoma = system: SK-MEL-28 melanoma
SK-MEL-5 melanoma = system: SK-MEL-5 melanoma
SK-OV-3 ovarian = system: SK-OV-3 ovarian
SN12C renal = system: SN12C renal
SNB-19 CNS = system: SNB-19 CNS
SNB-75 CNS = system: SNB-75 CNS
SR leukemia = system: SR leukemia
SW-620 colon = system: SW-620 colon
T-47D breast = system: T-47D breast
TK-10 renal = system: TK-10 renal
U251 CNS = system: U251 CNS
UACC-62 melanoma = system: UACC-62 melanoma
UO-31 renal = system: UO-31 renal

CCN(CC)c1ccc(-c2cc(-c3cc(OC)c(OC)c(OC)c3)nc(N3CCC(O)CC3)c2C#N)cc1
GI50 (786-0 renal): 337 nM
TGI (786-0 renal): 20300 nM
GI50 (A498 renal): 1070 nM
TGI (A498 renal): 14200 nM
GI50 (A549 NSCLC): 326 nM
GI50 (ACHN renal): 406 nM
TGI (ACHN renal): > 42500 nM
GI50 (BT-549 breast): 911 nM
TGI (BT-549 breast): 3890 nM
GI50 (CAKI-1 renal): 33.4 nM
TGI (CAKI-1 renal): 708 nM
GI50 (CCRF-CEM leukemia): 600 nM
TGI (CCRF-CEM leukemia): > 100000 nM
GI50 (COLO 205 colon): 488 nM
TGI (COLO 205 colon): 2110 nM
GI50 (DU-145 prostate): 877 nM
TGI (DU-145 prostate): 14600 nM
GI50 (EKVX NSCLC): 613 nM
TGI (EKVX NSCLC): > 100000 nM
GI50 (HCC-2998 colon): 374 nM
TGI (HCC-2998 colon): 2130 nM
GI50 (HCT-116 colon): 281 nM
TGI (HCT-116 colon): 1710 nM
GI50 (HCT-15 colon): 260 nM
TGI (HCT-15 colon): 1930 nM
GI50 (HL-60(TB) leukemia): 497 nM
TGI (HL-60(TB) leukemia): 2330 nM
GI50 (HOP-62 NSCLC): 1010 nM
TGI (HOP-62 NSCLC): 11900 nM
GI50 (HOP-92 NSCLC): 215 nM
TGI (HOP-92 NSCLC): 689 nM
GI50 (HS 578T breast): 3940 nM
TGI (HS 578T breast): > 100000 nM
GI50 (HT29 colon): 277 nM
TGI (HT29 colon): 1280 nM
GI50 (IGROV1 ovarian): 373 nM
TGI (IGROV1 ovarian): > 27700 nM
GI50 (K-562 leukemia): 353 nM
TGI (K-562 leukemia): 2130 nM
GI50 (KM12 colon): 512 nM
TGI (KM12 colon): 2980 nM
GI50 (LOX IMVI melanoma): 41.9 nM
TGI (LOX IMVI melanoma): 172 nM
GI50 (M14 melanoma): 262 nM
TGI (M14 melanoma): 799 nM
GI50 (MALME-3M melanoma): 303 nM
TGI (MALME-3M melanoma): 1180 nM
GI50 (MCF7 breast): 628 nM
GI50 (MDA-MB-231 breast): 214 nM
TGI (MDA-MB-231 breast): 1770 nM
GI50 (MDA-MB-435): 272 nM
TGI (MDA-MB-435): 1120 nM
GI50 (MOLT-4 leukemia): 621 nM
TGI (MOLT-4 leukemia): 5170 nM
GI50 (NCI-H226 lung): 756 nM
TGI (NCI-H226 lung): 5770 nM
GI50 (NCI-H23 lung): 870 nM
TGI (NCI-H23 lung): 4680 nM
GI50 (NCI-H460 lung): 245 nM
TGI (NCI-H460 lung): 1620 nM
GI50 (NCI/ADR-RES ovarian): 272 nM
TGI (NCI/ADR-RES ovarian): 5950 nM
GI50 (OVCAR-3 ovarian): 1170 nM
TGI (OVCAR-3 ovarian): 3020 nM
GI50 (OVCAR-4 ovarian): 789 nM
TGI (OVCAR-4 ovarian): > 100000 nM
GI50 (OVCAR-5 ovarian): 469 nM
TGI (OVCAR-5 ovarian): > 21800 nM
GI50 (OVCAR-8 ovarian): 441 nM
TGI (OVCAR-8 ovarian): 7440 nM
GI50 (PC-3 prostate): 713 nM
TGI (PC-3 prostate): > 100000 nM
GI50 (RPMI-8226 leukemia): 232 nM
TGI (RPMI-8226 leukemia): 4780 nM
GI50 (RXF 393 renal): 193 nM
TGI (RXF 393 renal): 2930 nM
GI50 (SF-268 CNS): 988 nM
TGI (SF-268 CNS): 3130 nM
GI50 (SF-295 CNS): 169 nM
TGI (SF-295 CNS): 435 nM
GI50 (SF-539 CNS): 554 nM
TGI (SF-539 CNS): 2470 nM
GI50 (SK-MEL-2 melanoma): 289 nM
TGI (SK-MEL-2 melanoma): 889 nM
GI50 (SK-MEL-28 melanoma): 879 nM
TGI (SK-MEL-28 melanoma): 3760 nM
GI50 (SK-MEL-5 melanoma): 156 nM
TGI (SK-MEL-5 melanoma): 365 nM
GI50 (SK-OV-3 ovarian): 1800 nM
TGI (SK-OV-3 ovarian): > 31600 nM
GI50 (SN12C renal): 626 nM
TGI (SN12C renal): 3190 nM
GI50 (SNB-19 CNS): 1720 nM
TGI (SNB-19 CNS): 7420 nM
GI50 (SNB-75 CNS): 321 nM
TGI (SNB-75 CNS): 3040 nM
GI50 (SR leukemia): 399 nM
TGI (SR leukemia): 2610 nM
GI50 (SW-620 colon): 448 nM
TGI (SW-620 colon): 12700 nM
GI50 (T-47D breast): 495 nM
TGI (T-47D breast): 3800 nM
GI50 (TK-10 renal): 1100 nM
TGI (TK-10 renal): 6920 nM
GI50 (U251 CNS): 398 nM
TGI (U251 CNS): 1800 nM
GI50 (UACC-62 melanoma): 264 nM
TGI (UACC-62 melanoma): 662 nM
GI50 (UO-31 renal): 274 nM
TGI (UO-31 renal): 1820 nM
